The subject of experiment [1] is H9 (acute lymphoblastic leukemia, ALL). The experiment can be described thus: MTT leukemia cell growth inhibition, 72 h. It is filed as cell-based, human. To be noted: Homo sapiens, H9, 72 h; for IC50: read-out: IC50; for IC90: read-out: IC90. An excerpt:
(§1) Leukemia cell lines: K562/adr (drug-resistant, chronic myeloid leukemia, CML), NB4 (acute promyelocytic leukemia, AML), Kasumi-1 (acute myeloid leukemia M2 type, AML-M2), Jurkat (acute lymphoblastic leukemia, ALL), all of which are donated by Cancer Research Institute of Zhejiang University, China; and H9 (acute lymphoblastic leukemia, ALL), which is purchased from China Center for Type Culture Collection.
(§2) Obtaining 6000 well-growing leukemia cells and inoculating them into wells of a 96-well cell culture plate. The culture medium is the 1640 cell culture medium containing 10% fetal bovine serum. After adding the homoharringtonine derivatives of different concentrations and mixing uniformly, placing the plate in a carbon dioxide cell incubator (5% CO2) at 37° C. and incubating for 72 hours. Then the viable cell concentration is determined by the MTT method. In this experiment, the cell viability in control group (not treated with any compound) is set as 100%.

In experiment [2] the test system is Jurkat (acute lymphoblastic leukemia, ALL). Put plainly: MTT leukemia cell growth inhibition, 72 h. The experiment is classed as cell-based, human. To be noted: Homo sapiens; for IC50: read-out: IC50; for IC90: read-out: IC90.
From the text: as §1, §2

Experiment [3] concerns Kasumi-1 (acute myeloid leukemia M2 type, AML-M2). Put plainly: MTT leukemia cell growth inhibition, 72 h. The experiment is classed as cell-based, human. To be noted: Homo sapiens, Kasumi-1, 72 h; for IC50: read-out: IC50; for IC90: read-out: IC90.
From the text: as §1, §2

Experiment [4] deals with NB4 (acute promyelocytic leukemia, AML). Put plainly: MTT leukemia cell growth inhibition, 72 h. It is filed as cell-based, human. To be noted: Homo sapiens, NB4, 72 h; for IC50: read-out: IC50; for IC90: read-out: IC90.
From the text: as §1, §2

Experiment [5] concerns K562/adr (drug-resistant, chronic myeloid leukemia, CML). Put plainly: MTT leukemia cell growth inhibition, 72 h. To be noted: Homo sapiens, K562/Adr; for IC50: read-out: IC50; for IC90: read-out: IC90. It is filed as cell-based, human.
From the text: as §1, §2

The subject of experiment [6] is PANC-1 (pancreatic cancer). The experiment can be described thus: MTT solid tumor cell growth inhibition, 72 h. The experiment is classed as cell-based, human. To be noted: Homo sapiens, PANC-1, 72 h; for IC50: read-out: IC50; for IC90: read-out: IC90. As to the method: (§3) Human solid tumor cell lines: Hep-2 ([…]), A549 (human lung cancer), CaES-17 (esophageal cancer cell), PC-3 (prostate cancer), CNE (nasopharyngeal carcinoma cell), and SK-OV-3 (ovarian cancer cell), all of which are purchased from China Center For Type Culture Collection; RKO (human colon adenocarcinoma cell), MGC 803 (human gastric cancer cell), MG63 (osteosarcoma) and U87 MG (malignant glioma cell), all of which are purchased from Fuxiang Bio-tech Co. Ltd., Shanghai, China; PANC-1 (pancreatic cancer), Huh7 (human liver cancer cell), Becap37 (human breast cancer cell), and Hela (human cervical cancer cell), all of which are donated by Cancer Research Institute of Zhejiang University, China.
(§4) Obtaining 4000 well-growing human solid tumor cells and inoculating them into wells of a 96-well cell culture plate. The culture medium is DMEM High Glucose cell culture medium containing 10% fetal bovine serum. The plate is placed in a carbon dioxide cell incubator (5% CO2) at 37° C. and incubating for 24 hours. After adding the homoharringtonine derivatives of different concentration and mixing uniformly, the plate is placed in a carbon dioxide cell incubator (5% CO2) at 37° C. and incubating for 72 hours. Then the viable cell concentration is determined by the MTT method and the cell viability (%) after drug treatment is calculated. In this experiment, the cell viability of control group (not treated with any compound) is set as 100%.

For experiment [7], the system named is MG63 (osteosarcoma). The experiment can be described thus: MTT solid tumor cell growth inhibition, 72 h. The experiment is classed as cell-based, human. To be noted: Homo sapiens, MG 63, 72 h; for IC50: read-out: IC50; for IC90: read-out: IC90. As to the method:
as §3, §4

For experiment [8], the system named is RPMI8226 (multiple myeloma). The experiment can be described thus: MTT multiple myeloma cell growth inhibition, 72 h. It is filed as cell-based, human. To be noted: Homo sapiens, RPMI-8226, RPMI8226, 72 h; for IC50: read-out: IC50; for IC90: read-out: IC90. Here is the method: Multiple myeloma and lymphoma cell lines: RPMI8226 (multiple myeloma), purchased from Fuxiang Bio-tech Co. Ltd., Shanghai, China.
Obtaining 6000 well-growing leukemia cells and inoculating them into wells of a 96-well cell culture plate. The culture medium is the 1640 cell culture medium containing 10% fetal bovine serum. After adding the homoharringtonine derivatives of different concentrations and mixing uniformly, placing the plate in a carbon dioxide cell incubator (5% CO2) at 37° C. and incubating for 72 hours. Then the viable cell concentration is determined by the MTT method.

Experiment [9] has as its system Huh7 (human liver cancer cell). Put plainly: MTT solid tumor cell growth inhibition, 72 h. The experiment is classed as cell-based. To be noted: Homo sapiens, Huh-7, Huh7, 72 h; for IC50: read-out: IC50; for IC90: read-out: IC90. Here is the method:
as §3, §4

Experiment [10] relates to MGC 803 (human gastric cancer cell). Put plainly: MTT solid tumor cell growth inhibition, 72 h. The experiment is classed as cell-based. To be noted: Homo sapiens, MGC 803, 72 h; for IC50: read-out: IC50; for IC90: read-out: IC90. Here is the method:
as §3, §4

Experiment [11] concerns Becap37 (human breast cancer cell). The experiment can be described thus: MTT solid tumor cell growth inhibition, 72 h. It is filed as cell-based. To be noted: Homo sapiens, Becap37, 72 h; for IC50: read-out: IC50; for IC90: read-out: IC90. As to the method:
as §3, §4

Experiment [12] concerns A549 (human lung cancer). Put plainly: MTT solid tumor cell growth inhibition, 72 h. The experiment is classed as cell-based. To be noted: Homo sapiens, A549, 72 h; for IC50: read-out: IC50; for IC90: read-out: IC90. As to the method:
as §3, §4

IC50 and IC90 data for three compounds are collected here from patent US9676789B2, “Aminated derivative of homoharringtonine, preparation method therefor, and application thereof” (HANGZHOU BENSHENG PHARMACEUTICAL CO., LTD., priority 2011, dated 2017).

The structures appear in SMILES notation. Converted amounts (≈) assume the structure as drawn.

For `COC1=C[C@]23CCCN2CCc2cc4c(cc2[C@@H]3[C@@H]1OC(=O)[C@@](O)(CCCC(C)(C)O)CC(=O)N1CCCCC1C)OCO4` (stereo partly shown) [BS-HH-037], the IC50 was 3.69 µg/mL (≈ 6.02 µM) in experiment [1]; 0.41 µg/mL (≈ 0.669 µM) in [2]; 1.58 µg/mL (≈ 2.58 µM) in experiment [3]; 0.7 µg/mL (≈ 1.14 µM) in [4]; greater than 16 µg/mL in experiment [5]; 6.47 µg/mL (≈ 10.6 µM) in experiment [6]. The IC50 in experiment [7] came out at 1.44 µg/mL (≈ 2.35 µM); in experiment [8], 1 µg/mL (≈ 1.63 µM); in experiment [9] it was 16 µg/mL (≈ 26.1 µM); in [10], 0.9 µg/mL (≈ 1.47 µM); in [11], 1.5 µg/mL (≈ 2.45 µM); in experiment [12] it was 1.96 µg/mL (≈ 3.2 µM). Further, the IC90 in experiment [1] was greater than 16 µg/mL; in [2] it was greater than 16 µg/mL; in [3], 16 µg/mL (≈ 26.1 µM); in experiment [4] it was 5.08 µg/mL (≈ 8.29 µM); in [5], greater than 16 µg/mL; in experiment [6] it was greater than 16 µg/mL. Moreover, the IC90 in experiment [7] is 16 µg/mL (≈ 26.1 µM); in experiment [8], 9.86 µg/mL (≈ 16.1 µM); in experiment [9], greater than 16 µg/mL; in experiment [10], 9.29 µg/mL (≈ 15.2 µM); in experiment [11] it was greater than 16 µg/mL; in experiment [12], greater than 16 µg/mL.

`COCCCNC(=O)C[C@](O)(CCCC(C)(C)O)C(=O)O[C@@H]1C(OC)=C[C@]23CCCN2CCc2cc4c(cc2[C@H]13)OCO4` [BS-HH-028]: the IC50 in experiment [1] was 6.52 µg/mL (≈ 10.8 µM); in [2] it was 3.56 µg/mL (≈ 5.91 µM); in experiment [3] it was 2.75 µg/mL (≈ 4.56 µM); in experiment [4] it was 2.59 µg/mL (≈ 4.3 µM); in [5] it was greater than 16 µg/mL; in [6] it was 16 µg/mL (≈ 26.5 µM). Moreover, the IC50 in experiment [7] is 6.8 µg/mL (≈ 11.3 µM); in [8] it was 4.92 µg/mL (≈ 8.16 µM); in experiment [9], 5.93 µg/mL (≈ 9.84 µM); in experiment [10], 8.62 µg/mL (≈ 14.3 µM); in [11] it was 13.1 µg/mL (≈ 21.8 µM); in [12] it was 16 µg/mL (≈ 26.5 µM). Moreover, the IC90 in experiment [1] was greater than 16 µg/mL; in experiment [2], 15 µg/mL (≈ 25 µM); in [3], 13 µg/mL (≈ 21.6 µM); in [4], 7.52 µg/mL (≈ 12.5 µM); in experiment [5] it was greater than 16 µg/mL; in experiment [6], greater than 16 µg/mL. Also, the IC90 in [7] is greater than 16 µg/mL; in experiment [8], greater than 16 µg/mL; in experiment [9] it was greater than 16 µg/mL; in experiment [10], 24.3 µg/mL (≈ 40.4 µM); in experiment [11] it was greater than 16 µg/mL; in experiment [12], greater than 16 µg/mL.

`COC1=C[C@]23CCCN2CCc2cc4c(cc2[C@@H]3[C@@H]1OC(=O)[C@@](O)(CCCC(C)(C)O)CC(=O)N1CCCC(C)C1)OCO4` (stereo partly shown) [BS-HH-038]: the IC50 was 7.37 µg/mL (≈ 12 µM) in experiment [1]; 1.47 µg/mL (≈ 2.4 µM) in experiment [2]; 2 µg/mL (≈ 3.26 µM) in experiment [3]; 0.32 µg/mL (≈ 0.522 µM) in [4]; greater than 16 µg/mL in experiment [5]; 8.83 µg/mL (≈ 14.4 µM) in experiment [6]. Further, the IC50 in [7] is 3.71 µg/mL (≈ 6.05 µM); in [8], 1.22 µg/mL (≈ 1.99 µM); in experiment [9], 16 µg/mL (≈ 26.1 µM); in experiment [11], 1.95 µg/mL (≈ 3.18 µM); in experiment [12], 5.72 µg/mL (≈ 9.33 µM). Also, the IC90 was greater than 16 µg/mL in [1]; 16 µg/mL (≈ 26.1 µM) in experiment [2]; 12 µg/mL (≈ 19.6 µM) in experiment [3]; 4.24 µg/mL (≈ 6.92 µM) in experiment [4]; greater than 16 µg/mL in experiment [5]; greater than 16 µg/mL in experiment [6]. Moreover, the IC90 in [7] is greater than 16 µg/mL; in experiment [8], 16 µg/mL (≈ 26.1 µM); in experiment [9] it was greater than 16 µg/mL; in experiment [11], greater than 16 µg/mL; in [12] it was greater than 16 µg/mL.

In general, IC50 refers to the concentration that gives 50% inhibition. For orientation: IC90 means the concentration needed for an effect of 90%.
